The source of these data is patent US20020172972A1, “Use of a selectively inactivatable enzyme to digest contaminating nucleic acid” (President and Fellows of Harvard College, priority 2001, published 2002).

The experiment has as its target T1, micrococcal nuclease (Staphylococcus aureus, UniProt P00644).
T1 construct: purchased Sigma N5386
Description: inactivation of micrococcal nuclease by EGTA, read out in the real time T7 DNA amplification reaction. The class given is biochemical. As to conditions: 2 mM EGTA added after incubation with 1 mM CaCl2.
Description: Micrococcal nuclease is obtained from Sigma (Sigma catalog number N5386 from Staphylococcus aureus, Foggi strain; 100-300 units/mg). EGTA, Ethylene glycol-bis(2-aminoethyl ether)-N,N,N′,N′-tetraacetic acid, is used as the micrococcal inactivating-agent and is obtained from Sigma (Sigma catalog number E8145. Tetrasodium salt). […]
DNA was quantitated by its ability to stimulate a real time DNA amplification reaction based on the T7 replication system, as described in PCT number WO 00/41524, published Jul. […] In this assay, the time required for the synthesized DNA to reach a designated threshold fluorescence value is proportional to the log of the input concentration of DNA over more than a 10,000,000-fold range of DNA concentration.

As to `O=C(O)CN(CCOCCOCCN(CC(=O)O)CC(=O)O)CC(=O)O` [EGTA, Ethylene glycol-bis(2-aminoethyl ether)-N,N,N′,N′-tetraacetic acid], the “effect of EGTA on micrococcal nuclease activity” value is reported as “inactivated”.
